From patent US20150140002A1, “USE OF A PCSK9 INHIBITOR TO TREAT […]” (Sanofi, priority 2013, published 2015)
“And” between values parts separate entries of the source, which are not always exact repeats. Equal values may be shown once.

How the values were obtained:
[1] = test system: patients with hypercholesterolemia at moderate cardiovascular (CV) risk; experiment: Example 2: Phase 3 monotherapy trial mAb316P versus ezetimibe, lipid parameters; assay type: in vivo, human; settings: for Lp(a) adjusted mean (SE) % change from baseline to week 24 / TGs adjusted mean (SE) % change from baseline to week 24: combined estimate; for LDL-C LS mean (SE) change from baseline (%): baseline to Week 24; for time-course of LDL-C lowering: week 4 to week 24, on-treatment; for between-group LS mean (SE) difference in LDL-C: week 12
Source text: Randomization was stratified according to DM status. […] Patients were followed for 8 weeks after the last visit of the Double Blind Treatment Period (DBTP).
Double-blind treatment period (DBTP)—A randomized, double-blind double dummy study treatment period of 24 weeks. The first injection during the double-blind period was done at the site on the day of randomization (Week 0 [D1]-V3) and as soon as possible after the call to IVRS/IWRS for randomization into the study. The subsequent injections were done by the patient (self-injection) or another designated person (such as spouse, relative, etc.) at a patient-preferred location (home, etc.).
The primary efficacy endpoint was the percent change in calculated LDL-C from baseline to week 24, which is defined as: 100×(calculated LDL-C value at Week 24−calculated LDL-C value at baseline)/calculated LDL-C value at baseline.
Total-C, HDL-C, TG, Apo B, Apo A-1, and Lp (a) were directly measured. LDL-C was calculated using the Friedewald formula at all visits (except Week −1 and Follow Up visit). If TG values exceeded 400 mg/dL (4.52 mmol/L) then the central lab reflexively measured (via the beta quantification method) the LDL-C rather than calculating it. Non-HDL-C was calculated by subtracting HDL-C from the total-C. Ratio Apo B/Apo A-1 was calculated.
The primary endpoint was assessed in the intent-to-treat (ITT) population, which included all randomized patients who had at least 1 calculated LDL-C value at baseline and at one of the planned time points from weeks 4 to 24.
Missing data were accounted for by means of a mixed effect model with repeated measures (MMRM) approach (Siddiqui et al., MMRM vs. LOCF: a comprehensive comparison based on simulation study and 25 NDA datasets”, J Biopharm Stat, vol. 19, pp. 227-246 (2009); National Research Council, “The Prevention and Treatment of Missing Data in Clinical Trials” Panel on Handling Missing Data in Clinical Trials. Committee on National Statistics, Division of Behavioral and Social Sciences and Education. 2010. Washington, D.C.: The National Academies Press; Andersen et al., “On the practical application of mixed effects models for repeated measures to clinical trial data”, Pharm Stat., vol. 12, pp. 7-16 (2013)). For the ITT analysis, all available measurements at planned time points from weeks 4 to 24 (meaning week 4, 8, 12, 16, and 24), whatever their status on or off-treatment, were used in the MMRM. One MMRM model was used for LDL-C to provide least-squares means estimates and comparison between treatment arms at weeks 24 and 12. Further details on the model are given below. For the on-treatment analysis, all available on-treatment measurements (i.e. up to 21 days after last injection/3 days after last capsule, whichever comes first) at planned time points from weeks 4 to 24 were used in the MMRM model. In the same way as for the ITT analysis, one model was used to provide estimates and comparison at week 24 and week 12 for the on-treatment analysis. Continuous key secondary endpoints other than Lp(a) and triglycerides were analyzed in a similar fashion as the primary endpoint and description of the statistical methodology for secondary endpoints and subgroup analysis is provided below.
Outputs from the model were the baseline-adjusted least-squares (LS) mean estimates at week 24 for both treatment groups with their corresponding standard error (SE). Appropriate contrast statement was used to test the difference between these estimates at the 2-sided 5% alpha level.
To analyze the key secondary endpoints, a hierarchical procedure was used to control type I error and handle multiplicity. Secondary efficacy endpoints were tested sequentially using the order given above, in the intent-to-treat population.

anti-mAb316P antibodies = experiment: Example 2: anti-mAb316P antibody (ADA) bridging immunoassay and neutralizing antibody assay; assay type: in vivo, human
Procedure: Other endpoints Anti-MAb316P Antibody Assessments: Anti-mAb316P antibodies included the antibody status (positive/negative) and antibody titers.
Sampling time: Serum samples for anti-mAb316P antibody determination were drawn periodically throughout the study. The first scheduled sample at randomization visit was obtained before IMP injection (predose).
Anti-mAb316P antibody samples were analyzed using a validated non-quantitative, titer-based bridging immunoassay. It involved an initial screen, a confirmation assay based on drug specificity, and a measurement of the titer of anti-MAb316P antibodies in the sample. The lower limit of detection was approximately 1.5 ng/mL.
Samples that were positive in the ADA assay were assessed for neutralizing antibodies using a validated, non-quantitative, competitive ligand binding assay. The lower limit of detection based on a monoclonal positive control neutralizing antibody is 390 ng/mL.

Q: Which results are given for “mAb316P: human anti-PCSK9 antibody; heavy chain SEQ ID NO:5, light chain SEQ ID NO:9; HCVR SEQ ID NO:1, LCVR SEQ ID NO:6”?
A: Apo A-1 LS mean (SE) % change from baseline to week 24 ([1]; ITT): 4.7 (1.6) %; Apo B LS mean (SE) % change from baseline to week 24 ([1]; ITT): −36.7 (2.3) %; HDL-C LS mean (SE) % change from baseline to week 24 ([1]; ITT): 6.0 (1.9) %; Non-HDL-C LS mean (SE) % change from baseline to week 24 ([1]; ITT): −40.6 (2.8) %; Total cholesterol LS mean (SE) % change from baseline to week 24 ([1]; ITT): −29.6 (2.1) %; Lp(a) adjusted mean (SE) % change from baseline to week 24 ([1]; ITT): −16.7 (3.7) %; TGs adjusted mean (SE) % change from baseline to week 24 ([1]; ITT): −11.9 (4.2) %; LDL-C LS mean (SE) Week 24 change from baseline (%) ([1]; ITT, excluding post up-titration data from patients up-titrated having LDL-C <100 mg/dL): −44.3%; LS mean (SE) percent reductions in LDL-C from baseline to week 24 ([1]; ITT, given as reduction): 47 (3) %; LDL-C reduction at week 12 ([1]; ITT, mAb316P 75 mg Q2W before up-titration, ezetimibe 10 mg daily): 48 (3) % and 48%; Apo A-1 LS mean (SE) % change from baseline to week 24 ([1]; On-treatment): 5.3 (1.6) %; Apo B LS mean (SE) % change from baseline to week 24 ([1]; On-treatment): −40.8 (1.9) %; HDL-C LS mean (SE) % change from baseline to week 24 ([1]; On-treatment): 8.0 (1.9) %; Non-HDL-C LS mean (SE) % change from baseline to week 24 ([1]; On-treatment): −47.1 (1.9) %; Total cholesterol LS mean (SE) % change from baseline to week 24 ([1]; On-treatment): −34.2 (1.6) %; Lp(a) adjusted mean (SE) % change from baseline to week 24 ([1]; On-treatment): −17.7 (4.1) %; TGs adjusted mean (SE) % change from baseline to week 24 ([1]; On-treatment): −14.7 (4.4) %; LDL-C (on treatment), mean (SD) ([1]; Week 4, non-uptitrated at Week 12 (n = 32)): 59.8 (13.6) mg/dL; LDL-C (on treatment), mean (SD) ([1]; Week 4, uptitrated at Week 12 (n = 14)): 83.5 (23.6) mg/dL; LDL-C (on treatment), mean (SD) ([1]; Week 12, non-uptitrated at Week 12 (n = 32)): 58.8 (16.8) mg/dL; LDL-C (on treatment), mean (SD) ([1]; Week 12, uptitrated at Week 12 (n = 14)): 78.3 (22.8) mg/dL; LDL-C LS mean difference (SE) % MAb316P versus ezetimibe ([1]; Week 24, ITT, excluding post up-titration data from patients up-titrated having LDL-C <100 mg/dL): −28.7%; LDL-C LS mean difference (SE) % MAb316P versus ezetimibe ([1]; Week 24, ITT, listed as MAb316P): −31.6%; LDL-C (on treatment), mean (SD) ([1]; Week 24, non-uptitrated, 75 mg Q2W (n = 32)): 57.8 (16.2) mg/dL; LDL-C (on treatment), mean (SD) ([1]; Week 24, uptitrated to 150 mg Q2W at Week 12 (n = 14)): 74.8 (19.5) mg/dL; LDL-C LS mean (SE) change from baseline (%) ([1]; ITT): −47.2%; LDL-C LS mean (SE) change from baseline (%) ([1]; On-treatment): −54.1%; estimated proportions of patients with LDL-C reductions ≧50% at week 12 ([1]; before up-titration, ITT): 58%; proportions of patients with LDL-C reductions ≧50% at week 12 ([1]; before up-titration, on-treatment analysis): 65%; reduction in Lp(a) ([1]; current study, discussion): 18%; patients who achieved LDL-C<70 mg/dL at Week 8 ([1]; of the 46 mAb316P-treated patients in PK analyses, 75 mg Q2W): 32 patients; LS mean (SE) LDL-C reductions from baseline to week 24 ([1]; on-treatment analysis, given as reduction): 54 (2) %; LDL-C reduction at week 12 ([1]; on-treatment analysis, mAb316P 75 mg Q2W): 53 (2) % and 53%; reduction in LDL-C at 12 weeks ([1]; summary, mAb316P 75mg Q2W arm, monotherapy population): ~50%; time-course of LDL-C lowering [1]: robust LDL-C reductions maintained from week 4 to end of the treatment period at week 24; time-course of LDL-C lowering ([1]; listed as MAb316P): sustained LDL-lowering effect from weeks 4 to 24; between-group LS mean (SE) difference in LDL-C ([1]; ITT): −28 (4) %; between-group LS mean (SE) difference in LDL-C ([1]; on-treatment analysis): −33 (3) %; Apo A-1 LS mean difference (SE) % MAb316P versus ezetimibe ([1]; week 24, ITT): 5.3 (2.2) %; Apo B LS mean difference (SE) % MAb316P versus ezetimibe ([1]; week 24, ITT): −25.8 (3.3) %; HDL-C LS mean difference (SE) % MAb316P versus ezetimibe ([1]; week 24, ITT): 4.4 (2.7) %; LDL-C LS mean difference (SE) % MAb316P versus ezetimibe ([1]; week 24, ITT): −32 (4) %; Lp(a) mean difference (SE) % MAb316P versus ezetimibe ([1]; week 24, ITT): −4.4 (5.3) %; Non-HDL-C LS mean difference (SE) % MAb316P versus ezetimibe ([1]; week 24, ITT): −25.5 (4.1) %; TGs mean difference (SE) % MAb316P versus ezetimibe ([1]; week 24, ITT): −1.2 (5.9) %; Total cholesterol LS mean difference (SE) % MAb316P versus ezetimibe ([1]; week 24, ITT): −18.7 (3.0) %; Apo A-1 LS mean difference (SE) % MAb316P versus ezetimibe ([1]; week 24, On-treatment): 6.1 (2.3) %; Apo B LS mean difference (SE) % MAb316P versus ezetimibe ([1]; week 24, On-treatment): −29.2 (2.6) %; HDL-C LS mean difference (SE) % MAb316P versus ezetimibe ([1]; week 24, On-treatment): 6.2 (2.7) %; LDL-C LS mean difference (SE) % MAb316P versus ezetimibe ([1]; week 24, On-treatment): −36.9%; Lp(a) mean difference (SE) % MAb316P versus ezetimibe ([1]; week 24, On-treatment): −5.4 (5.7) %; Non-HDL-C LS mean difference (SE) % MAb316P versus ezetimibe ([1]; week 24, On-treatment): −30.5 (2.7) %; TGs mean difference (SE) % MAb316P versus ezetimibe ([1]; week 24, On-treatment): −1.9 (6.0) %; Total cholesterol LS mean difference (SE) % MAb316P versus ezetimibe ([1]; week 24, On-treatment): −22.2 (2.3) %; anti-drug antibody titers (anti-mAb316P antibodies; all anti-drug antibody-positive patients): ≤ 240; neutralizing anti-drug antibody (anti-mAb316P antibodies; in vivo): no neutralizing anti-drug antibody; patients with treatment emergent anti-drug antibodies (anti-mAb316P antibodies; in vivo): 6 (12%) patients (%)
